Reference: ChEMBL document CHEMBL1201862, “PubChem BioAssay data set” (2004)
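1) Cells in 96-well plates. 2) Compound, 48 h, 5 concentrations. 3) Linear interpolation between surrounding doses. 4) Unreached endpoint = highest concentration. The concentration for 50% growth inhibition is given as GI50.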 Active and inactive are the calls of the source. Cut-off read from the data, not from the text of the source: active = GI50 up to about 1.1 µM and inactive = higher.

Experiments:
Assay in all cases: NCI tumour cell line growth inhibition, 48 h
786-0 = system: 786-0
A549 = system: A549
ACHN = system: ACHN
BT-549 = system: BT-549
CAKI-1 = system: CAKI-1
CCRF-CEM = system: CCRF-CEM
COLO 205 = system: COLO 205
DU-145 = system: DU-145
EKVX = system: EKVX
HCT-116 = system: HCT-116
HCT-15 = system: HCT-15
HL-60 = system: HL-60
HOP-62 = system: HOP-62
HOP-92 = system: HOP-92
HT-29 = system: HT-29
Hs-578T = system: Hs-578T
IGROV-1 = system: IGROV-1
K562 = system: K562
LOX IMVI = system: LOX IMVI
M14 = system: M14
MCF7 = system: MCF7
MDA-MB-231 = system: MDA-MB-231
MDA-MB-435 = system: MDA-MB-435
MOLT-4 = system: MOLT-4
Malme-3M = system: Malme-3M
NCI-H226 = system: NCI-H226
NCI-H23 = system: NCI-H23
NCI-H460 = system: NCI-H460
NCI-H522 = system: NCI-H522
NCI/ADR-RES = system: NCI/ADR-RES
OVCAR-3 = system: OVCAR-3
OVCAR-4 = system: OVCAR-4
OVCAR-5 = system: OVCAR-5
OVCAR-8 = system: OVCAR-8
PC-3 = system: PC-3
RPMI-8226 = system: RPMI-8226
SF-268 = system: SF-268
SF-295 = system: SF-295
SF-539 = system: SF-539
SK-MEL-28 = system: SK-MEL-28
SK-MEL-2 = system: SK-MEL-2
SK-MEL-5 = system: SK-MEL-5
SK-OV-3 = system: SK-OV-3
SN12C = system: SN12C
SNB-19 = system: SNB-19
SNB-75 = system: SNB-75
SR = system: SR
SW-620 = system: SW-620
T47D = system: T47D
TK-10 = system: TK-10
U-251 = system: U-251
UACC-257 = system: UACC-257
UACC-62 = system: UACC-62
UO-31 = system: UO-31

With `CCOC(=O)C1=C(c2ccccc2)N(C)c2ccccc2S1` the GI50 (786-0) was 31.8 µM (inactive), the GI50 (A549) was 35.6 µM (inactive) and the GI50 (ACHN) was 24.1 µM (inactive). For the same compound, the GI50 (BT-549) was 21.5 µM (inactive), the GI50 (CAKI-1) was 31 µM (inactive) and the GI50 (CCRF-CEM) was 31 µM (inactive). For the same compound, the GI50 (COLO 205) was 31.3 µM (inactive), the GI50 (DU-145) was 44.2 µM (inactive) and the GI50 (EKVX) was 32 µM (inactive). The GI50 (HCT-116) was 25.2 µM (inactive), the GI50 (HCT-15) was 14.6 µM and the GI50 (HL-60) was 37.4 µM (inactive). The GI50 (HOP-62) was 36.4 µM (inactive), the GI50 (HOP-92) was 44.5 µM (inactive) and the GI50 (HT-29) was 17.4 µM (inactive). The GI50 (Hs-578T) was 23.3 µM (inactive), the GI50 (IGROV-1) was 32.4 µM (inactive) and the GI50 (K562) was 36.8 µM (inactive). The GI50 (LOX IMVI) was 16.7 µM (inactive), the GI50 (M14) was 34.5 µM (inactive) and the GI50 (MCF7) was 36 µM (inactive). For the same compound, the GI50 (MDA-MB-231) was 29.6 µM (inactive), the GI50 (MDA-MB-435) was 33.2 µM (inactive) and the GI50 (MOLT-4) was 32.4 µM (inactive). The GI50 (Malme-3M) was 40.6 µM (inactive), the GI50 (NCI-H226) was 21.7 µM (inactive) and the GI50 (NCI-H23) was 20.1 µM (inactive). The GI50 (NCI-H460) was 24.7 µM (inactive), the GI50 (NCI-H522) was 25.6 µM (inactive) and the GI50 (NCI/ADR-RES) was 22.3 µM (inactive). For the same compound, the GI50 (OVCAR-3) was 36 µM (inactive), the GI50 (OVCAR-4) was 30.1 µM (inactive) and the GI50 (OVCAR-5) was 35.1 µM (inactive). For the same compound, the GI50 (OVCAR-8) was 33.6 µM (inactive), the GI50 (PC-3) was 29.9 µM (inactive) and the GI50 (RPMI-8226) was 17 µM (inactive). For the same compound, the GI50 (SF-268) was 29.4 µM (inactive), the GI50 (SF-295) was 35.8 µM (inactive) and the GI50 (SF-539) was 37.2 µM (inactive). The GI50 (SK-MEL-28) was 38.9 µM (inactive), the GI50 (SK-MEL-2) was 23.2 µM (inactive) and the GI50 (SK-MEL-5) was 16.1 µM (inactive). The GI50 (SK-OV-3) was 92.5 µM (inactive), the GI50 (SN12C) was 23.9 µM (inactive) and the GI50 (SNB-19) was 69.5 µM (inactive). For the same compound, the GI50 (SNB-75) was 38.6 µM (inactive), the GI50 (SR) was 31.6 µM (inactive) and the GI50 (SW-620) was 44.4 µM (inactive). The GI50 (T47D) was 18.1 µM (inactive), the GI50 (TK-10) was 46.5 µM (inactive) and the GI50 (U-251) was 19.8 µM (inactive). For the same compound, the GI50 (UACC-257) was 31.6 µM (inactive), the GI50 (UACC-62) was 19 µM (inactive) and the GI50 (UO-31) was 22.4 µM (inactive).
